Data taken from PMC2703631, “Identification of non-muscle myosin heavy chain as a substrate for Cdk5 and tool for drug screening” (Journal of Biomedical Science, 2009).

What was measured:
[1] = molecular target: recombinant human Cdk5/p25 (Homo sapiens, UniProt Q00535); experiment: Scintillation Proximity Assay (SPA), peptide substrate phosphorylation; type: biochemical; settings: recombinant human Cdk5/p25 3.3 nM, 2 μM ATP, biotinylated peptide substrate; read-out: IC50, inhibition of peptide substrate phosphorylation in SPA assay
Method: (§1) The inhibition curves were analysed by non-linear regression using Graph Pad Prism.
This biochemical assay measures inhibition of the recombinant human Cdk5/p25 protein kinase by different compounds with a synthetic peptide as a substrate.

[2] = tested on: Cdk5/p25 transfected HEK293 cells; experiment: NMHC-B (pSerCdk substrate) phosphorylation by Western blot in Cdk5/p25 transfected HEK293 cells; type: cell-based, human; settings: for IC50: Homo sapiens, 4 hours treatment, Western blot, read-out: IC50, inhibition of pSerCdk substrate (NMHC-B) phosphorylation
Method: as §1

[3] = Solubility (remark in discussion); type: physicochemical; settings: stated as likely cause of precipitation at higher concentrations
[4] = tested on: human neuroblastoma SH-SY5Y cells; experiment: pSerCdk substrate (NMHC-B) phosphorylation by Western blot in SH-SY5Y cells; type: cell-based; settings: undifferentiated and RA-differentiated SH-SY5Y cells, 10 μM, 4 hours
Method: SH-SY5Y cells were grown in medium with equal amount of Minimum Essential Medium (MEM, InVitrogen, Sweden) and Nutrient Mixture Ham's F-12 (InVitrogen, Sweden), supplemented with 1% non-essential amino acids and with heat-inactivated FCS. Cells were plated at a density of 4.0 × 10^4 cells/cm^2 in 6-well culture dishes using cell medium with 10% FCS. For differentiation, the cells were treated 6 days with 10 μM all-trans-retinoic acid (RA, Sigma, Sweden) in the medium containing 1% FCS. In some experiments the cells were left undifferentiated and these cells were cultured in medium containing 10% FCS. […]
HEK293 cells were lysed in buffer containing 10 mM Tris-HCl pH 7.2, 150 mM NaCl, 2 mM EDTA, 50 mM NaF, 1 mM Na3O4V, 0.5% NP-40 and 1 complete protease inhibitor cocktail tablet (Roche Diagnostics Scandinavia AB, Sweden)/10 ml buffer. […] The protein content in the supernatants was measured using BCA Protein Assay kit (Pierce Biotechnology, Rockford, IL, USA). […] Average density of the bands was measured in Fluor-S™MultiImager (Bio-Rad Laboratories AB, Sweden) by using Quantity One software. The inhibition curves were analysed by non-linear regression using Graph Pad Prism.
We also investigated NMHC-B phosphorylation by Cdk5 in human neuroblastoma SH-SY5Y cells. […] Verification that the 200 kDa pSerCdk band detected in SH-SY5Y cells was in fact NMHC-B was done by immunoprecipitation.

recombinant human Cdk5/p25, sequence (Q00535 whole entry): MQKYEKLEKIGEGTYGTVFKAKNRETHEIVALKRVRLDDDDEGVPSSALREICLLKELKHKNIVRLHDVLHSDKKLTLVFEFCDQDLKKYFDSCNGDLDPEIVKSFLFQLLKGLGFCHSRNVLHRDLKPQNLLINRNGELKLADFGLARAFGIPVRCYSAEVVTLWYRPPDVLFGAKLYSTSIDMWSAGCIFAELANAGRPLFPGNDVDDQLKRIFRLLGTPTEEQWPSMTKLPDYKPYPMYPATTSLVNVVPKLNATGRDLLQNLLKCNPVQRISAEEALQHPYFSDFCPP
recombinant human Cdk5/p25, sequence (Q15078 99-307 partner limits assumed): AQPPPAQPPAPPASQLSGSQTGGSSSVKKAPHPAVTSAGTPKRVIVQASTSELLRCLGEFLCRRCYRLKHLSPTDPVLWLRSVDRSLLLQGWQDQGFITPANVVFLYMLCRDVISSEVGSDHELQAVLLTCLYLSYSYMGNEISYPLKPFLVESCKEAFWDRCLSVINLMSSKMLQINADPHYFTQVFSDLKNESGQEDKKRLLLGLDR

IC50 [1] [µM]	solubility [3]	SMILES	IC50 [2] [µM]	inhibition of pSerCdk substrate phosphorylation ([2]; data not shown)	phosphorylation of 200 kDa pSerCdk substrate band [4]
0.355	poor solubility	NS(=O)(=O)c1cc(-c2nc3ccc(Cl)cc3s2)cs1 [AZ compound, 4-(6-chlorobenzothiazol-2-yl)thiophene-2-sulfonamide]	4.36		
		Cc1c(C(=O)c2ccc(Cl)cc2)cc(C(C)(C)C)c(O)c1C(=O)O [5-(4-chlorobenzoyl)-2-hydroxy-6-methyl-3-tert-butyl-benzoic acid]		did not show inhibition	
0.045		CCn1c(=O)ccc2cnc(Nc3ccc(F)cc3)nc21 [WL compound, 7-ethyl-4-[(4-fluorophenyl)amino]-3,5,7-triaza bicyclo [4.4.0.] deca-1,3,5,9-tetraen-8-one]	2.55		
		CC[C@H](CO)Nc1nc(NCc2ccccc2)c2ncn(C(C)C)c2n1 [Roscovitine]			completely inhibited
